Measurements reported in ChEMBL document CHEMBL3507680, “University of Dundee, Gates Library screen for HepG2 cell viability”.

Experiment: Human HepG2 cell viability assay in 384 well format
Assay type: toxicity, cell-based
Set-up: dose 125 nL, time 70.5 hour; cytotoxicity at 70.5 h: concentration not given beside the values
Details: HepG2 cells, read-out: Inhibition

Structure (SMILES) | cytotoxicity at 70.5 h [%]
CC(C)CN1C(=O)CO[C@@H]2CNC[C@H]21 | -10.3
COc1cc(N2CCCC3(CCN(c4cncnc4)C3=O)C2)ncn1 (stereo not given) | -7.92
CCS(=O)(=O)NCC1Cn2nnc(-c3cccc(C)c3)c2CO1 (stereo not given) | -5.93
CC(=O)N1CCCC2(CCN(c3nncs3)C2)C1 (stereo not given) | -4.07
Cc1nc(CN(C)C(=O)C2CCC(=O)N(CCN(C)C)C2)cs1 (stereo not given) | 11.1
O=C(NCc1ccco1)N1CCC(n2cc(-c3ccccn3)nn2)CC1 | 0.624
Cc1nc(CN2CCCCC2CCc2ccc(O)cc2)co1 (stereo not given) | -6.18
CN(Cc1cn[nH]c1-c1ccc(F)cc1)C(=O)CCC1CC1 | -13.8
O=C(O)C(c1cccc2c1OCC2)N1CCC(N2CCCC2)CC1 (stereo not given) | -0.16
CC(C)c1cc(C2CCN(C(=O)Cn3nc4ccccc4n3)CC2)[nH]n1 | -5.96
COc1ccc([C@@H]2CN(c3cc(OC)ncn3)C[C@H]2N(C)C)cc1 | 22.1
Cc1cc(C)nc(CN(C)c2nc(C3CCCC3)nc3c2cnn3C)c1 | -9.74
COCCCC1(C(=O)O)CCCN(C(=O)c2ccc(Cl)cc2F)C1 (stereo not given) | -10.9
Cc1cc(N(C)CCC(O)c2ccccc2)n2nccc2n1 (stereo not given) | -3.24
Cc1cnc(C(=O)N2CCCCC2c2ccc(CN(C)C)cc2)cn1 (stereo not given) | 8.8
Cc1nc2ccccn2c1CN1C[C@@H](CN(C)C)[C@@H](CO)C1 | -6.27
NC(=O)Cn1ccnc1C1CCCN(Cc2cccc(Cl)c2F)C1 (stereo not given) | -11.7
CCn1nc(CC(C)C)cc1C(=O)NCc1c(C)cc(C)nc1OC | 2.04
O=c1[nH]c(NCc2cccc(OC(F)F)c2)nc2c1CCNC2 | -23.8
COCCc1noc(CN2CC(C)(c3ccccc3)CCC2=O)n1 (stereo not given) | -9.17
CC(C)Oc1cccc(-c2nc3c([nH]2)CCCNC3=O)c1 | 5.17
Cc1nccc(N2C[C@@H](CN3CCCC3)[C@@H](CO)C2)n1 | -6.17

Structure (SMILES) | cytotoxicity at 70.5 h [%]
O=C(C1CC2(CCNCC2)CN1)N1CCN(c2cccc(Cl)c2Cl)CC1 (stereo not given) | -1.58
Cc1nc(N2CC[C@@H](c3ccc4ccccc4c3)[C@H](O)C2)no1 | 3.2
CN(C)Cc1csc(-c2nccn2Cc2ccc(C(=O)O)cc2)c1 | 19.3
CC(=O)N[C@@H]1CN(Cc2ccccc2C#N)C[C@H]1c1ccc(C)cc1 | -21.6
Cc1nonc1OCCNC(=O)COc1ccc(F)cc1F | -12.2
Cc1nc(CN(C)Cc2nc(-c3ccncc3)no2)co1 | 3.9
CCN(CC)C(=O)C1CCC(=O)N(CCc2cccc(F)c2)C1 (stereo not given) | 19.7
COCCN1CCN(C(=O)c2ccc(C)cc2OC)[C@H]2CS(=O)(=O)C[C@H]21 | -11.7
CC(C)CN1C(=O)CC[C@H]2CN(C(=O)Cn3ccc(=O)cc3)CC[C@H]21 | 21.4
CC(c1cn2ccsc2n1)N1Cc2ncccc2C1=O (stereo not given) | -4.52
CC1(C)CCN(S(=O)(=O)N2CCCC(c3cccc(C(=O)O)c3)C2)CC1 (stereo not given) | -10.5
Cc1nc(C(=O)N2CCN(S(C)(=O)=O)[C@@H]3CS(=O)(=O)C[C@@H]32)cs1 | 1.07
c1ccc(CNc2ncc(CN3CCCN4CCC[C@H]4C3)cn2)cc1 | -3.55
Cc1nc(CN(Cc2ccncc2)C2CCN(C)CC2)cs1 | 8.24
Cn1nnnc1SCCNC(=O)c1cccc2ccnn12 | 3.9
CN1C(=O)[C@H]2CC[C@@H]1CN(C(=O)Nc1cccc3ccccc13)C2 | -6.28
Cc1noc(-c2ccc(Oc3cccc(CN4CCCC4)c3F)nc2)n1 | 16.7
COc1cccc(CNC(=O)N2CCCC(Cn3cc(CN)nn3)C2)c1 (stereo not given) | -5.66
CNc1nc(C(=O)N2CCCn3nc(C(=O)N4CCCC4)cc3C2)cs1 | -11.2
CCN1CCN(C(=O)c2ccc3c(c2)CCCN3)[C@H]2CS(=O)(=O)C[C@H]21 | -5.32
CCN1CC2(CCC1=O)CCN(c1ccc(C(C)=O)cn1)CC2 | -3.76
CN(Cc1ccccc1)c1ncccc1CNC(=O)c1ccnn1C | -10.4

Structure (SMILES) | cytotoxicity at 70.5 h [%]
CCN(C)C[C@H]1CC[C@@H](Cc2ccc3c(cnn3C)c2)O1 | 11.5
CCC[C@H]1CN(Cc2ccc3c(c2)OCCO3)C[C@@H]1NC(=O)COC | 3.4
CCN1CC2(CCC1=O)CCN(Cc1cccc(C#N)c1)CC2 | -4.47
CNS(=O)(=O)CCNCC1(O)CCCN(CCC2CCCCC2)C1=O (stereo not given) | -0.181
CC(=O)NC1CCN(c2ncnc3c2c(C)nn3C)C1 (stereo not given) | -7.17
CC(C)[C@H]1COC(=O)N1Cc1nccn1C(C)C | -4.48
CCc1nc(NC2CCCN(C(=O)c3cccs3)C2)c2cnn(C)c2n1 (stereo not given) | 7.73
CC(c1cccc(-c2nccn2CCc2ccccn2)c1)N(C)C (stereo not given) | -7.37
COc1cccc(N2CCN(Cc3nccn3C(C)C)CC2=O)c1 | -2.87
CN(CCCSc1ccccc1)C(=O)Cn1ncc(N(C)C)cc1=O | -7.24
CC1(C)Cc2nc(C(C)(C)C)ncc2C(NC(=O)CN)C1 (stereo not given) | -10.1
Cc1cccc2c1nc(CCO)n2-c1ccc(C(=O)N2CCOCC2)o1 | -1.12
Cn1ccnc1SCCNC(=O)c1c[nH]nc1C1CCCCC1 | -8.06
Cc1cc(NCCc2cnccn2)nc(-c2ccccc2O)n1 | -12.4
Cc1[nH]ccc1C(=O)N1CCC2(CC1)c1nc[nH]c1CCN2S(C)(=O)=O | -4.51
Cc1cnc(CNCc2cn(CCN3CCSCC3)nc2C)cn1 | 24.8
CNC(=O)c1nc(CN2CCOC(C(F)(F)F)C2)no1 (stereo not given) | 28.6
Cc1cc(N2CCC(n3cc(CN4CCSCC4)nn3)CC2)ccn1 | 1.06
CCc1cnc(C)nc1NCCN1CCOCC1 | -0.575
CN(CC(O)CO)c1nc(-c2cccnc2)nc2c1CCNC2 (stereo not given) | -17.2
O=C(CCc1cn[nH]c1)N1C[C@@H](CN2CCCCCC2)[C@@H](CO)C1 | -8.48
CC(C)C[C@@H](CO)n1cc(-c2cnc(-c3ccco3)nc2)nn1 | -6.45

Structure (SMILES) | cytotoxicity at 70.5 h [%]
CCC[C@H]1CN(Cc2ccc(N(C)C)nc2)C[C@@H]1NS(=O)(=O)CC | -1.04
CC(C)C(=O)NCC(=O)N1CCC2(CC1)c1ccccc1[C@@H](N)[C@@H]2O | 13.2
CC(CCn1cccn1)Nc1ccc(-c2nccn2C)nn1 (stereo not given) | 22.7
Cc1cc(C)nc(N2CCN(Cc3cc4n(n3)CCNC4)CC2)n1 | -8.76
CCN(Cc1cnn(CC)c1)C(=O)Cn1c(=O)c(C)nc2ccccc21 | -17.7
O=C(O)c1cc(-c2cccnc2)cc(S(=O)(=O)NCc2ccccn2)c1 | -5.41
CCn1ncnc1C(C)Nc1cc(C2CCNCC2)nc(C)n1 (stereo not given) | 26.8
COC1CCN(C(=O)Cn2ncc(N3CCCCC3)cc2=O)C1 (stereo not given) | -2.54
Cc1[nH]c2c(F)cccc2c1CC(=O)NCCCNc1cccnc1 | -11.8
Cc1ccc(C)c(OCCNC(=O)C2CCOC2)c1 (stereo not given) | -1.02
CC(c1cccc(-c2ncccc2F)c1)N(C)C (stereo not given) | -14.8
O=C(c1ccc(C2CCCN2)s1)N1CCN(C(=O)N2CCOCC2)CC1 (stereo not given) | -6.24
CC(C)c1cc(N[C@H](C(N)=O)C(C)C)n2nccc2n1 | -4.75
COc1cccc(Cn2ncnc2CNC(C)=O)c1 | -10.5
CC(=O)NCC(=O)N1CCc2[nH]c(-c3ccccc3)nc2C1 | -1.22
CCSCCNC(=O)Nc1cc(C(=O)N2CCOCC2)ccc1Cl | -3.96
CNS(=O)(=O)c1ccc(CN2CCN3CCNC(=O)C3C2)cc1 (stereo not given) | -6.1
COC(=O)c1cc(OCC2CCC2)cc(C(=O)N[C@@H]2CCCNC2)c1 | -18.2
COc1cccc(OC2CN(C(=O)C3CCCN(C(=O)N(C)C)C3)C2)c1 (stereo not given) | 26.8
CSCc1noc(CN2CCC3(CC2)CC(=O)N(CC=C(C)C)C3)n1 | -11.8
CC(c1ccc2c(c1)OCCO2)N(C)C(=O)c1ccnnc1 (stereo not given) | -5.69
COc1ccc(-n2ccnc2-c2cnc(C(C)C)nc2)cc1C(=O)O | -3.39

Structure (SMILES) | cytotoxicity at 70.5 h [%]
OCC1(CC2CC2)CCCN(Cc2ccc(C(F)(F)F)nc2)C1 (stereo not given) | -6.45
CC(=O)N1C[C@@H]2CC[C@H](C1)N(S(=O)(=O)c1ccc(C#N)cc1Cl)C2 | -12.7
Cc1ccc(-c2ncc(C(=O)N3CCC[C@H](N)C3)c(O)n2)cc1 | -6.29
Cc1ccc(NC2CCCN(C3Cc4ccccc4C3)C2)nn1 (stereo not given) | -4.1
Cc1nc(-c2cccnc2)ncc1C(=O)N1CCC(C(C)N(C)C)CC1 (stereo not given) | -2.91
CCN1CCC(N2CCN(c3cc(-c4nc(C)no4)ccn3)CC2)CC1 | 11.7
COC[C@]1(O)CCN(C2CCN(c3ccc(OC)cc3)CC2)CC1(C)C | 23.9
Cc1cc(C)n(C2CCN(c3ncnc4sc5c(c34)CCNC5)C2)n1 (stereo not given) | -18.5
O=c1c2cccc(C(F)(F)F)c2ncn1C1CCNC1 (stereo not given) | -13.6
c1ccc(Oc2ccc(OC34CCCN(CC3)C4)cc2)cc1 (stereo not given) | -9.13
O=C(CC1CCc2ccccc21)NCCSc1ccccn1 (stereo not given) | 11.8
COc1ccccc1CN(Cc1cccc(C)c1)C(=O)[C@@H](N)CC(=O)O | 8.65
CN(C)C(=O)CN1C[C@@H]2CC[C@H](C1)N(Cc1ccc(Cl)cc1Cl)C2 | 2.51
Cc1noc(-c2ccc(N3CCC[C@H]3CO)nc2)n1 | -0.652
CCc1nnsc1C(=O)N1CCCC(c2nc3ccccc3[nH]2)C1 (stereo not given) | -14.3
CN(C)C(=O)N1CC[C@]2(O)CCN(C(=O)c3ccc(C#N)nc3)C[C@@H]2C1 | 3.74
COCc1n[nH]c2c1CN(Cc1ccccn1)C2 | -9.17
Cc1cnc(N2CCC3(CC2)COCCN(C(C)C)C3)nc1 | -8.08
O=C(NCc1cnc2n1CCN(Cc1cccs1)C2)c1ccno1 | 18.9
COCCN1CCC2(CC1)CC(N1CCOCC1)c1ccc(C)cc12 (stereo not given) | -8.53
O=C(Nc1cccnc1)[C@H]1CN(Cc2ccccn2)C[C@H]2OCC[C@@H]12 | -7.69
c1cncc(OCc2n[nH]c3c2CN(Cc2cccs2)C3)c1 | -6.87
